Data published in patent US11266643B2, “Triaryl compounds for treatment of PD-L1 diseases” (CHEMOCENTRYX, INC., priority 2019, dated 2022).

Molecular target: human PD-L1 (Homo sapiens (Human), UniProt Q9NZQ7)
Assay: Enzyme-Linked Immunosorbent Assay (ELISA), PD-1/PD-L1 binding
Details: human PD-1/PD-L1 ELISA, plates coated with human PD-L1
Experimental: 96 Well plates were coated with […] of human PD-L1 (obtained from R&D) in PBS overnight at 4° C. The wells were then blocked with 2% BSA in PBS (W/V) with 0.05% TWEEN-20 for 1 hour at 37° C. The plates were washed 3 times with PBS/0.05% TWEEN-20 and the compounds were serial diluted (1:5) in dilution medium and added to the ELISA plates. Human PD-1 […] 0.31 μg/mL (ACRO Biosystems) were added and incubated for 1 hour at 37° C. then washed 3 times with PBS/0.05% TWEEN-20. A second block was performed with 2% BSA in PBS (W/V)/0.05% TWEEN-20 for 10 min at 37° C. and the plates were washed 3 times with PBS/0.05% TWEEN-20. Streptavidin-HRP was added for 1 hour at 37° C. then the plates were washed 3 times with PBS/0.05% TWEEN-20. TMB substrate was added and reacted for 20 min at 37° C. A stop solution (2 N aqueous H2SO4) was added. The absorbance was read at 450 nm using a micro-plate spectrophotometer.
Using the methods described in the Examples above, the compounds in Table 2 were prepared & tested for biological activity using the ELISA method described above.

human PD-L1, sequence (Q9NZQ7 19-239): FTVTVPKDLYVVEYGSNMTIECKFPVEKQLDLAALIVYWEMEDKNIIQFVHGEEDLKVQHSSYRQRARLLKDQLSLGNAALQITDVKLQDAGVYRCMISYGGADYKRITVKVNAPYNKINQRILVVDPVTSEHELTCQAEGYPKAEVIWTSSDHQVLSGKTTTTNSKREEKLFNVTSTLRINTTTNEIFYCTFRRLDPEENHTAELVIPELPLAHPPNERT

Row | SMILES | IC50 [nM]
1 | COc1cc(-c2cccc(-c3cccc(NC(=O)c4c[nH]c(=O)n(C)c4=O)c3C)c2C)cc(F)c1CN[C@@H]1CCC(=O)NC1 [Example 1.094] | < 10
2 | COc1cc(-c2cccc(-c3cccc(NC(=O)c4cn(C)c(=O)n(C)c4=O)c3C)c2C)cc(F)c1CNCC1CCCNC1=O (centres unmarked) [Example 1.095] | < 10
3 | COc1cc(-c2cccc(-c3cccc(NC(=O)c4c[nH]c(=O)n(C)c4=O)c3C)c2C)cc(F)c1CNC1CCNC(=O)C1 (centres unmarked) [Example 1.096] | < 10
4 | COc1cc(-c2cccc(-c3cccc(NC(=O)c4cccn(C)c4=O)c3C)c2C)cc(F)c1CNCc1c[nH]c(=O)[nH]c1=O [Example 1.097] | < 10
5 | COc1cc(-c2cccc(-c3cccc(NC(=O)c4cncn(C)c4=O)c3C)c2C)cc(F)c1CNCC1CCCNC1=O (centres unmarked) [Example 1.098] | < 10
6 | COc1cc(-c2cccc(-c3cccc(NC(=O)c4cncn(C)c4=O)c3C)c2C)cc(F)c1CNCCN1CCCC1=O [Example 1.099] | < 10
7 | COc1cc(-c2cccc(-c3cccc(NC(=O)c4c[nH]c(=O)n(C)c4=O)c3C)c2C)cc(F)c1CNCC1CCCNC1=O (centres unmarked) [Example 1.100] | < 10
8 | COc1cc(-c2cccc(-c3cccc(Nc4nccc5nccnc45)c3C)c2C)cc(F)c1CNCc1c[nH]c(=O)[nH]c1=O [Example 1.101] | 10 to 1000
9 | COc1cc(-c2cccc(-c3cccc(NC(=O)c4cncn(C)c4=O)c3C)c2C)cc(F)c1CN[C@@H]1CCC(=O)NC1 [Example 1.102] | < 10
10 | COc1cc(-c2cccc(-c3cccc(NC(=O)c4cncn(C)c4=O)c3C)c2C)cc(F)c1CNC1CCNC(=O)C1 (centres unmarked) [Example 1.103] | < 10
11 | COc1cc(-c2cccc(-c3cccc(NC(=O)c4nn(C)c(=O)n(C)c4=O)c3C)c2C)cc(F)c1CNC[C@@H]1CCC(=O)N1 [Example 1.104] | < 10
12 | COc1cc(-c2cccc(-c3cccc(NC(=O)c4nn(C)c(=O)n(C)c4=O)c3C)c2C)cc(F)c1CN[C@@H]1CNC(=O)C1 [Example 1.105] | < 10
13 | COc1cc(-c2cccc(-c3cccc(NC(=O)c4nn(C)c(=O)n(C)c4=O)c3C)c2C)cc(F)c1CNCCC1CCC(=O)N1 (centres unmarked) [Example 1.106] | < 10
14 | COc1cc(-c2cccc(-c3cccc(NC(=O)c4cn(C)c(=O)n(C)c4=O)c3C)c2C)cc(F)c1CN[C@@H]1CCC(=O)NC1 [Example 1.107] | < 10
15 | COc1cc(-c2cccc(-c3cccc(NC(=O)c4cn(C)c(=O)n(C)c4=O)c3C)c2C)cc(F)c1CNCC[C@@H]1CCC(=O)N1 [Example 1.108] | < 10
16 | COc1cc(-c2cccc(-c3cccc(NC(=O)c4c[nH]c(=O)n(C)c4=O)c3C)c2C)cc(F)c1CNCC[C@@H]1CCC(=O)N1 [Example 1.109] | < 10
17 | COc1cc(-c2cccc(-c3cccc(NC(=O)c4cn(C)c(=O)n(C)c4=O)c3C)c2C)cc(F)c1CN[C@H]1CCC(=O)NC1 [Example 1.110] | < 10
18 | COc1cc(-c2cccc(-c3cccc(NC(=O)c4c[nH]c(=O)n(C)c4=O)c3C)c2C)cc(F)c1CN[C@@H]1CCOC[C@@H]1O [Example 1.111] | < 10
19 | COc1cc(-c2cccc(-c3cccc(NC(=O)c4cn(C)c(=O)n(C)c4=O)c3C)c2C)cc(F)c1CNCc1ccnn1C [Example 1.112] | 10 to 1000

Row | SMILES | IC50 [nM]
20 | COc1cc(-c2cccc(-c3cccc(NC(=O)c4cncn(C)c4=O)c3C)c2C)cc(F)c1CNCc1c[nH]c(=O)[nH]c1=O [Example 1.113] | < 10
21 | COc1cc(-c2cccc(-c3cccc(NC(=O)c4cn(C)c(=O)n(C)c4=O)c3C)c2C)cc(F)c1CNCCC(N)=O [Example 1.114] | < 10
22 | COc1cc(-c2cccc(-c3cccc(NC(=O)c4cn(C)c(=O)n(C)c4=O)c3C)c2C)cc(F)c1CNCCC1CCC(=O)N1 (centres unmarked) [Example 1.115] | < 10
23 | COc1cc(-c2cccc(-c3cccc(Nc4nccc5nccnc45)c3C)c2C)cc(F)c1CNCc1ccn[nH]1 [Example 1.116] | 10 to 1000
24 | COc1cc(-c2cccc(-c3cccc(NC(=O)c4cccn(C)c4=O)c3C)c2C)cc(F)c1CN[C@@H]1CCC[C@H]1O [Example 1.117] | < 10
25 | COc1cc(-c2cccc(-c3cccc(NC(=O)c4cn(C)c(=O)n(C)c4=O)c3C)c2C)cc(F)c1CNCCN1CCCC1=O [Example 1.118] | < 10
26 | COc1cc(-c2cccc(-c3cccc(NC(=O)c4c[nH]c(=O)n(C)c4=O)c3C)c2C)cc(F)c1CNCc1ncc[nH]1 [Example 1.119] | 10 to 1000
27 | COc1cc(-c2cccc(-c3cccc(NC(=O)c4c[nH]c(=O)n(C)c4=O)c3C)c2C)cc(F)c1CNCc1noc(=O)[nH]1 [Example 1.120] | 10 to 1000
28 | COc1cc(-c2cccc(-c3cccc(NC(=O)c4cn(C)c(=O)n(C)c4=O)c3C)c2C)cc(F)c1CNC1CC(=O)NC1=O (centres unmarked) [Example 1.121] | 10 to 1000
29 | COc1cc(-c2cccc(-c3cccc(Nc4nccc5nccnc45)c3C)c2C)cc(F)c1CNC1CCOCC1 [Example 1.123] | < 10
30 | COc1cc(-c2cccc(-c3cccc(Nc4nccc5nccnc45)c3C)c2C)cc(F)c1CN[C@H]1CCNC1=O [Example 1.125] | 10 to 1000
31 | COc1cc(-c2cccc(-c3cccc(NC(=O)c4cn(C)c(=O)n(C)c4=O)c3C)c2C)cc(F)c1CN(C)[C@H]1CNC(=O)C1 [Example 1.126] | 10 to 1000
32 | COc1cc(-c2cccc(-c3cccc(NC(=O)c4cn(C)c(=O)n(C)c4=O)c3C)c2C)cc(F)c1CN[C@H]1CNC(=O)C1 [Example 1.127] | < 10
33 | COc1cc(-c2cccc(-c3cccc(NC(=O)c4c[nH]c(=O)n(C)c4=O)c3C)c2C)cc(F)c1CNCCC(N)=O [Example 1.128] | < 10
34 | COc1cc(-c2cccc(-c3cccc(NC(=O)c4cn(C)c(=O)n(C)c4=O)c3C)c2C)cc(F)c1CN[C@H]1CCC[C@@H]1O [Example 1.129] | < 10
35 | COc1cc(-c2cccc(-c3cccc(Nc4nccc5nccnc45)c3C)c2C)cc(F)c1CN[C@@H]1CCNC1=O [Example 1.130] | 10 to 1000
36 | COc1cc(-c2cccc(-c3cccc(NC(=O)c4c[nH]c(=O)n(C)c4=O)c3C)c2C)cc(F)c1CNCCN1CCCC1=O [Example 1.131] | < 10
37 | COc1cc(-c2cccc(-c3cccc(NC(=O)c4cncn(C)c4=O)c3C)c2C)cc(F)c1CN(C)C[C@H]1CCC(=O)N1 [Example 1.132] | 10 to 1000
38 | COc1cc(-c2cccc(-c3cccc(NC(=O)c4cn(C)c(=O)n(C)c4=O)c3C)c2C)cc(F)c1CNC(C)(C)CO [Example 1.133] | < 10

Row | SMILES | IC50 [nM]
39 | COc1cc(-c2cccc(-c3cccc(NC(=O)c4c[nH]c(=O)n(C)c4=O)c3C)c2C)cc(F)c1CNCc1ccn[nH]1 [Example 1.134] | < 10
40 | COc1cc(-c2cccc(-c3cccc(NC(=O)c4c[nH]c(=O)n(C)c4=O)c3C)c2C)cc(F)c1CN[C@H]1CCNC1=O [Example 1.135] | 10 to 1000
41 | COc1cc(-c2cccc(-c3cccc(NC(=O)c4cn(C)c(=O)n(C)c4=O)c3C)c2C)cc(F)c1CN[C@@H]1CCC[C@H]1O [Example 1.137] | < 10
42 | COc1cc(-c2cccc(-c3cccc(NC(=O)c4c[nH]c(=O)n(C)c4=O)c3C)c2C)cc(F)c1CN[C@@H]1CCNC1=O [Example 1.138] | 10 to 1000
43 | COc1cc(-c2cccc(-c3cccc(NC(=O)c4cncn(C)c4=O)c3C)c2C)cc(F)c1CNC1CCOC1 (centres unmarked) [Example 1.139] | < 10
44 | COc1cc(-c2cccc(-c3cccc(NC(=O)c4cncn(C)c4=O)c3C)c2C)cc(F)c1CNCC1(O)CC1 [Example 1.140] | < 10
45 | COc1cc(-c2cccc(-c3cccc(NC(=O)c4c[nH]c(=O)n(C)c4=O)c3C)c2C)cc(F)c1CNCCC1CCC(=O)N1 (centres unmarked) [Example 1.141] | < 10
46 | COc1cc(-c2cccc(-c3cccc(NC(=O)c4cccn(C)c4=O)c3C)c2C)cc(F)c1CN[C@H]1CNC(=O)C1 [Example 1.142] | < 10
47 | COc1cc(-c2cccc(-c3cccc(NC(=O)c4c[nH]c(=O)n(C)c4=O)c3C)c2C)cc(F)c1CN[C@H]1CNC(=O)C1 [Example 1.143] | < 10
48 | COc1cc(-c2cccc(-c3cccc(Nc4nccc5nccnc45)c3C)c2C)cc(F)c1CN[C@H]1CCC[C@@H]1O [Example 1.144] | < 10
49 | COc1cc(-c2cccc(-c3cccc(NC(=O)c4cccn(C)c4=O)c3C)c2C)cc(F)c1CNC[C@H]1CCC(=O)N1 [Example 1.145] | < 10
50 | COc1cc(-c2cccc(-c3cccc(NC(=O)c4cn(C)c(=O)n(C)c4=O)c3C)c2C)cc(F)c1CNCc1cn(C)c(=O)n(C)c1=O [Example 1.146] | < 10
51 | COc1cc(-c2cccc(-c3cccc(NC(=O)c4cn(C)c(=O)n(C)c4=O)c3C)c2C)cc(F)c1CN[C@H]1CCC[C@H]1O [Example 1.147] | < 10
52 | COc1cc(-c2cccc(-c3cccc(NC(=O)c4cn(C)c(=O)n(C)c4=O)c3C)c2C)cc(F)c1CN(C)[C@@H]1CNC(=O)C1 [Example 1.148] | < 10
53 | COc1cc(-c2cccc(-c3cccc(NC(=O)c4cn(C)c(=O)n(C)c4=O)c3C)c2C)cc(F)c1CNCc1c[nH]c(=O)[nH]c1=O [Example 1.149] | < 10
54 | COc1cc(-c2cccc(-c3cccc(NC(=O)c4cccn(C)c4=O)c3C)c2C)cc(F)c1CNC(C)(C)CO [Example 1.150] | < 10
55 | COc1cc(-c2cccc(-c3cccc(NC(=O)c4cncn(C)c4=O)c3C)c2C)cc(F)c1CNC(C)(C)CO [Example 1.151] | < 10
56 | COc1cc(-c2cccc(-c3cccc(NC(=O)c4cn(C)c(=O)n(C)c4=O)c3C)c2C)cc(F)c1CN(C)C[C@H]1CCC(=O)N1 [Example 1.152] | 10 to 1000
